Results from ChEMBL document CHEMBL4392822, “HSP60/10 chaperonin systems are inhibited by a variety of approved drugs, natural products, and known bioactive molecules” (Bioorg Med Chem Lett, 2019).

What was measured:
[1] = biological target: T1, Thiosulfate sulfurtransferase (Homo sapiens, UniProt Q16762); type: ADME;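 note: native rhodanese of unspecified species, enzyme activity read after 45 min by spectrophotometric detection of Fe(SCN)3 colour, IC50 reflects activity reduction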
T1 sequence (Q16762 whole entry): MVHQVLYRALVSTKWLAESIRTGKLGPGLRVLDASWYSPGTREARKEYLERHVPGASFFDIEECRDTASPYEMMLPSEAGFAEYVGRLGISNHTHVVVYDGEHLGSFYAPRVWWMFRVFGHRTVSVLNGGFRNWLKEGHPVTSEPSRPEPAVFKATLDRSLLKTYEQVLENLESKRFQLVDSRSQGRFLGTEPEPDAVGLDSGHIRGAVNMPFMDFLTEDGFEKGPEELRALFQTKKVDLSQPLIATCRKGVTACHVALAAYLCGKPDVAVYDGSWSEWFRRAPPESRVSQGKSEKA
Description: Inhibition of native rhodanese (unknown origin) assessed as reduction in rhodanese enzyme activity after 45 mins by Fe(SCN)3 dye based spectrometric analysis

HSP60/HSP10 = HSP60/HSP10 (Homo sapiens, UniProt P10809);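 note: His-tagged human HSP60 with HSP10 refolding denatured MDH, read as MDH activity on mesoxalate by malachite green spectrometry, inhibition of refolding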
Description: Inhibition of human N-terminal octa-His-tagged HSP60 expressed in Escherichia coli Rosetta(DE3) pLysS/human HSP10 expressed in Escherichia coli Rosetta(DE3) assessed as reduction in HSP60/HSP10-mediated denatured MDH refolding by measuring MDH enzyme activity using sodium mesoxalate as substrate after 40 to 60 mins by malachite green dye based spectrometric analysis

E. coli GroEL/ES [2] = biological target: T2, E. coli GroEL/ES (Escherichia coli, UniProt P0A6F5)
Description: Inhibition of Escherichia coli GroEL expressed in Escherichia coli DH5alpha/Escherichia coli GroES expressed in Escherichia coli BL21 (DE3) assessed as reduction in GroEL/GroES-mediated denatured rhodanese refolding by measuring rhodanese enzyme activity after 45 mins by Fe(SCN)3 dye based spectrometric analysis

E. coli GroEL/ES [3] = biological target: T2, E. coli GroEL/ES; remark: listed apart in the source
Description: Inhibition of Escherichia coli GroEL expressed in Escherichia coliDH5alpha/Escherichia coli GroES expressed in Escherichia coli BL21 (DE3) assessed as reduction in GroEL/GroES-mediated denatured soluble pig heart MDH refolding by measuring MDH enzyme activity using sodium mesoxalate as substrate after 20 to 40 mins by malachite green dye based spectrometric analysis

Chaperonin GroEL = Chaperonin GroEL (Escherichia coli (strain K12), UniProt P0A6F5);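 note: inhibition of GroEL ATPase activity with ATP as substrate, 60 min incubation, spectrometric read-out, recombinant enzyme produced in Escherichia coli DH5alpha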
Sequence of Chaperonin GroEL (P0A6F5 whole entry): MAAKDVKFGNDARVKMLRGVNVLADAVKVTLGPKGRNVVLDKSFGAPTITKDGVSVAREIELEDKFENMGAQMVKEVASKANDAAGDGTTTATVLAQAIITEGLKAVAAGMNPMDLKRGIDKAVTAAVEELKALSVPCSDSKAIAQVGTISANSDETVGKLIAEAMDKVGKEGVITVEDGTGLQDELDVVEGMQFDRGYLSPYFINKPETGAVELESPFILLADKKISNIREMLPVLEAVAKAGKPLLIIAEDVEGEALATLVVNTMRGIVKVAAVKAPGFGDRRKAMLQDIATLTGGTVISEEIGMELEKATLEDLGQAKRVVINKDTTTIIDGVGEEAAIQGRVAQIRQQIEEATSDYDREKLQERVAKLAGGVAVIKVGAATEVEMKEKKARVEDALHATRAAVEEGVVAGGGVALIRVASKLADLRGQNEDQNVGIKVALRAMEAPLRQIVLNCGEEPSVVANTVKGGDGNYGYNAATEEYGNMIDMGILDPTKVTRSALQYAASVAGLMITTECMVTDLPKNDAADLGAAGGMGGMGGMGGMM
Description: Inhibition of ATPase activity of Escherichia coli GroEL expressed in Escherichia coliDH5alpha incubated for 60 mins using ATP by spectrometric analysis

T2 sequence (P0A6F5 whole entry, looked up): as the sequence (P0A6F5 whole entry) above
Sequence of HSP60/HSP10 (P10809 whole entry): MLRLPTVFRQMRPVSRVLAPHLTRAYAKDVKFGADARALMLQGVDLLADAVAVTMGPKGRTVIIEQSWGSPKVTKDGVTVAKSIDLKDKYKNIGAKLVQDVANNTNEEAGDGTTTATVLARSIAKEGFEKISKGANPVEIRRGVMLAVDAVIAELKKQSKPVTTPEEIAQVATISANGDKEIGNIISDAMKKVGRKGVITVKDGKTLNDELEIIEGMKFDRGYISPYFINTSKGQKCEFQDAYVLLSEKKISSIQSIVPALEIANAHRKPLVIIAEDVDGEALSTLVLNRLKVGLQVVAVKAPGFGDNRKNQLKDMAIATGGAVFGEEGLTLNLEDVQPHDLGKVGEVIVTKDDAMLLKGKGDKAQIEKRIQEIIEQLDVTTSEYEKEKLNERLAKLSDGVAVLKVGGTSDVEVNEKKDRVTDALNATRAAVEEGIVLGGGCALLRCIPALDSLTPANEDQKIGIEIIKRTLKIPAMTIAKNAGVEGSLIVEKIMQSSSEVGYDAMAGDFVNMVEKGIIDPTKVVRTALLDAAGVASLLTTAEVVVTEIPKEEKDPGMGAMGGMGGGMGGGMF
Sequence of HSP60/HSP10 (P61604 whole entry, further chain): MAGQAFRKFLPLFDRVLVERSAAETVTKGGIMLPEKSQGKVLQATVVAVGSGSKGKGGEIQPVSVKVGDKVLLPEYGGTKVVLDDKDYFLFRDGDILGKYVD

CCOc1nc2cccc(C(=O)O)c2n1Cc1ccc(-c2ccccc2-c2nnn[nH]2)cc1
IC50 [1]: > 100 µM
IC50 (HSP60/HSP10): > 100 µM
IC50 (E. coli GroEL/ES [2]): > 250 µM
IC50 (E. coli GroEL/ES [3]): > 100 µM

CCCCN1CCC(COC(=O)c2cc(Cl)c(N)c3c2OCCO3)CC1
IC50 [1]: > 100 µM
IC50 (HSP60/HSP10): > 100 µM
IC50 (E. coli GroEL/ES [2]): > 250 µM
IC50 (E. coli GroEL/ES [3]): > 100 µM

COc1ccc(-c2ccc3cc(C(=O)O)ccc3c2)cc1C12CC3CC(CC(C3)C1)C2
IC50 [1]: > 100 µM
IC50 (Chaperonin GroEL): > 250 µM
IC50 (HSP60/HSP10): 2.3 µM
IC50 (E. coli GroEL/ES [2]): 5.1 µM
IC50 (E. coli GroEL/ES [3]): 2.1 µM

Cc1cc2c(C(C)C)c(O)c(O)c(C=O)c2c(O)c1-c1c(C)cc2c(C(C)C)c(O)c(O)c(C=O)c2c1O
IC50 [1]: 11 µM
IC50 (Chaperonin GroEL): > 250 µM
IC50 (HSP60/HSP10): 1.2 µM
IC50 (E. coli GroEL/ES [2]): 0.43 µM
IC50 (E. coli GroEL/ES [3]): 0.66 µM

CC[C@H](C)C1O[C@]2(C=C[C@@H]1C)C[C@@H]1C[C@@H](C/C=C(\C)[C@@H](O[C@H]3C[C@H](OC)[C@@H](O[C@H]4C[C@H](OC)[C@H](NC(C)=O)[C@H](C)O4)[C@H](C)O3)[C@@H](C)/C=C/C=C3\CO[C@@H]4[C@H](O)C(C)=C[C@@H](C(=O)O1)[C@]34O)O2 (some centres undefined)
IC50 [1]: > 100 µM
IC50 (Chaperonin GroEL): > 250 µM
IC50 (HSP60/HSP10): 17 µM
IC50 (E. coli GroEL/ES [2]): 38 µM
IC50 (E. coli GroEL/ES [3]): 11 µM

COc1cc(-c2ccc(/N=N/c3ccc4c(S(=O)(=O)O)cc(S(=O)(=O)O)c(N)c4c3O)c(OC)c2)ccc1/N=N/c1ccc2c(S(=O)(=O)O)cc(S(=O)(=O)O)c(N)c2c1O
IC50 [1]: 8.5 µM
IC50 (E. coli GroEL/ES [2]): 2 µM
IC50 (E. coli GroEL/ES [3]): 3.9 µM

CCCCCCCCCCCCCCCCC(C(=O)O)C(O)(CC(=O)O)C(=O)O (centres undefined)
IC50 [1]: > 100 µM
IC50 (Chaperonin GroEL): > 250 µM
IC50 (HSP60/HSP10): 4 µM
IC50 (E. coli GroEL/ES [2]): 8.9 µM
IC50 (E. coli GroEL/ES [3]): 3.5 µM

O=C(/C=C/c1ccccc1)c1ccc(O)cc1 [4'-HYDROXYCHALCONE]
IC50 [1]: > 100 µM
IC50 (Chaperonin GroEL): > 250 µM
IC50 (HSP60/HSP10): 20 µM
IC50 (E. coli GroEL/ES [2]): 56 µM
IC50 (E. coli GroEL/ES [3]): 21 µM

COc1ccc(C(=O)/C=C/c2ccccc2)cc1 [4'-METHOXYCHALCONE]
IC50 [1]: > 100 µM
IC50 (Chaperonin GroEL): > 250 µM
IC50 (HSP60/HSP10): 16 µM
IC50 (E. coli GroEL/ES [2]): 30 µM
IC50 (E. coli GroEL/ES [3]): 13 µM

O=C(/C=C/c1ccc(O)cc1)c1ccccc1 [4-HYDROXYCHALCONE]
IC50 [1]: > 100 µM
IC50 (Chaperonin GroEL): > 250 µM
IC50 (HSP60/HSP10): 22 µM
IC50 (E. coli GroEL/ES [2]): 40 µM
IC50 (E. coli GroEL/ES [3]): 21 µM

CCCCCCCCCc1ccc(O)cc1 [4-NONYLPHENOL]
IC50 [1]: 72 µM
IC50 (Chaperonin GroEL): > 250 µM
IC50 (HSP60/HSP10): 9.5 µM
IC50 (E. coli GroEL/ES [2]): 29 µM
IC50 (E. coli GroEL/ES [3]): 12 µM

CC[C@H](C)[C@H]1O[C@]2(C=C[C@@H]1C)C[C@@H]1C[C@@H](C/C=C(\C)[C@@H](O[C@H]3C[C@H](OC)[C@@H](O[C@H]4C[C@H](OC)[C@@H](O)[C@H](C)O4)[C@H](C)O3)[C@@H](C)/C=C/C=C3\CO[C@@H]4[C@H](O)C(C)=C[C@@H](C(=O)O1)[C@]34O)O2 [ABAMECTIN COMPONENT B1A]
IC50 [1]: > 100 µM
IC50 (Chaperonin GroEL): > 250 µM
IC50 (HSP60/HSP10): 15 µM
IC50 (E. coli GroEL/ES [2]): 32 µM
IC50 (E. coli GroEL/ES [3]): 9.8 µM

CC(C)(C)NCC(O)c1ccc(O)c(CO)c1 (centres undefined) [ALBUTEROL]
IC50 [1]: > 100 µM
IC50 (HSP60/HSP10): > 100 µM
IC50 (E. coli GroEL/ES [2]): > 250 µM
IC50 (E. coli GroEL/ES [3]): > 100 µM

CCCCC/C=C\C/C=C\C/C=C\C/C=C\CCCC(=O)O [ARACHIDONIC ACID]
IC50 [1]: > 100 µM
IC50 (Chaperonin GroEL): > 250 µM
IC50 (HSP60/HSP10): 4.5 µM
IC50 (E. coli GroEL/ES [2]): 18 µM
IC50 (E. coli GroEL/ES [3]): 7.3 µM

CCCCCCCCCCCCCCCC(=O)OC[C@H](O)[C@H]1OC(=O)C(O)=C1O [ASCORBYL PALMITATE]
IC50 [1]: 53 µM
IC50 (Chaperonin GroEL): 177 µM
IC50 (HSP60/HSP10): 3.1 µM
IC50 (E. coli GroEL/ES [2]): 8.5 µM
IC50 (E. coli GroEL/ES [3]): 3.5 µM

O=C(O)C1=CC(=C(c2ccc(O)c(C(=O)O)c2)c2ccc(O)c(C(=O)O)c2)C=CC1=O [AURINTRICARBOXYLIC ACID]
IC50 [1]: > 100 µM
IC50 (Chaperonin GroEL): > 250 µM
IC50 (HSP60/HSP10): 3.2 µM
IC50 (E. coli GroEL/ES [2]): 0.57 µM
IC50 (E. coli GroEL/ES [3]): 0.9 µM

CCc1oc2ccccc2c1C(=O)c1cc(Br)c(O)c(Br)c1 [BENZBROMARONE]
IC50 [1]: > 100 µM
IC50 (Chaperonin GroEL): > 250 µM
IC50 (HSP60/HSP10): 9.1 µM
IC50 (E. coli GroEL/ES [2]): 49 µM
IC50 (E. coli GroEL/ES [3]): 18 µM

Oc1c(Cl)cc(Cl)cc1Sc1cc(Cl)cc(Cl)c1O [BITHIONOL]
IC50 [1]: > 100 µM
IC50 (Chaperonin GroEL): > 250 µM
IC50 (HSP60/HSP10): 2.8 µM
IC50 (E. coli GroEL/ES [2]): 13 µM
IC50 (E. coli GroEL/ES [3]): 4.3 µM

Cc1cc(C(C#N)c2ccc(Cl)cc2)c(Cl)cc1NC(=O)c1cc(I)cc(I)c1O (centres undefined) [CLOSANTEL]
IC50 [1]: > 100 µM
IC50 (Chaperonin GroEL): > 250 µM
IC50 (HSP60/HSP10): 2.8 µM
IC50 (E. coli GroEL/ES [2]): 2 µM

C=C1CC[C@H](O)C/C1=C/C=C1\CCC[C@]2(C)[C@@H]([C@H](C)/C=C/[C@H](C)C(C)C)CC[C@@H]12 [ERGOCALCIFEROL]
IC50 (Chaperonin GroEL): > 250 µM
IC50 (HSP60/HSP10): 45 µM
IC50 (E. coli GroEL/ES [2]): 41 µM
IC50 (E. coli GroEL/ES [3]): 28 µM

CC1=NCCc2c1[nH]c1cc(O)ccc21 [HARMALOL]
IC50 (Chaperonin GroEL): > 250 µM
IC50 (HSP60/HSP10): > 100 µM
IC50 (E. coli GroEL/ES [3]): > 100 µM

O=C1C=C2CC3(O)COc4c(ccc(O)c4O)C3=C2C=C1O (centres undefined) [HEMATEIN]
IC50 [1]: 12 µM
IC50 (Chaperonin GroEL): > 250 µM
IC50 (HSP60/HSP10): 3.6 µM
IC50 (E. coli GroEL/ES [3]): 1.8 µM

C[C@H](CCC(=O)O)[C@H]1CC[C@H]2[C@@H]3CC[C@@H]4C[C@H](O)CC[C@]4(C)[C@H]3CC[C@]12C [LITHOCHOLIC ACID]
IC50 [1]: > 100 µM
IC50 (Chaperonin GroEL): > 250 µM
IC50 (HSP60/HSP10): 10 µM
IC50 (E. coli GroEL/ES [2]): 59 µM

Nc1ccc(O)c(C(=O)O)c1 [MESALAMINE]
IC50 [1]: 0.28 µM

CN(C)c1ccc2nc3ccc(=[N+](C)C)cc-3sc2c1 [METHYLENE BLUE]
IC50 [1]: 6.1 µM
IC50 (HSP60/HSP10): > 100 µM

CC(=O)O[C@H]1C(=O)[C@@]2(C)[C@H]([C@H](OC(=O)c3ccccc3)[C@]3(O)C[C@H](OC(=O)[C@H](O)[C@@H](NC(=O)c4ccccc4)c4ccccc4)C(C)=C1C3(C)C)[C@]1(OC(C)=O)CO[C@@H]1C[C@@H]2O [PACLITAXEL]
IC50 (Chaperonin GroEL): > 250 µM
IC50 (HSP60/HSP10): > 100 µM
IC50 (E. coli GroEL/ES [2]): 114 µM
IC50 (E. coli GroEL/ES [3]): 56 µM

COc1cc(NC(C)CCCN)c2ncccc2c1 (centres undefined) [PRIMAQUINE]
IC50 [1]: 2.9 µM
IC50 (HSP60/HSP10): > 100 µM

Cc1cc2nc3c(=O)[nH]c(=O)nc-3n(C[C@H](O)[C@H](O)[C@H](O)COP(=O)(O)O)c2cc1C [RIBOFLAVIN 5'-PHOSPHATE SODIUM]
IC50 [1]: 0.38 µM
IC50 (Chaperonin GroEL): > 250 µM
IC50 (E. coli GroEL/ES [2]): 0.77 µM
IC50 (E. coli GroEL/ES [3]): 85 µM

Cc1cc2nc3c(=O)[nH]c(=O)nc-3n(C[C@H](O)[C@H](O)[C@H](O)CO)c2cc1C [RIBOFLAVIN]
IC50 (Chaperonin GroEL): > 250 µM
IC50 (HSP60/HSP10): > 100 µM
IC50 (E. coli GroEL/ES [2]): 18 µM
IC50 (E. coli GroEL/ES [3]): > 100 µM

Cc1ccc(C(=O)Nc2ccc(S(=O)(=O)O)c3cc(S(=O)(=O)O)cc(S(=O)(=O)O)c23)cc1NC(=O)c1cccc(NC(=O)Nc2cccc(C(=O)Nc3cc(C(=O)Nc4ccc(S(=O)(=O)O)c5cc(S(=O)(=O)O)cc(S(=O)(=O)O)c45)ccc3C)c2)c1 [SURAMIN]
IC50 [1]: > 100 µM
IC50 (Chaperonin GroEL): > 250 µM
IC50 (HSP60/HSP10): 7.2 µM

C=C(NC(=O)C(=C)NC(=O)c1csc(C2=N[C@@H]3c4csc(n4)[C@H]4NC(=O)c5csc(n5)[C@H]([C@](C)(O)[C@@H](C)O)NC(=O)[C@H]5CSC(=N5)/C(=C/C)NC(=O)[C@H]([C@@H](C)O)NC(=O)c5csc(n5)[C@]3(CC2)NC(=O)[C@H](C)NC(=O)C(=C)NC(=O)[C@H](C)NC(=O)[C@H]([C@@H](C)CC)N[C@@H]2C=Cc3c([C@H](C)O)cc(nc3[C@H]2O)C(=O)O[C@@H]4C)n1)C(N)=O [THIOSTREPTON]
IC50 [1]: > 100 µM
IC50 (Chaperonin GroEL): > 250 µM
IC50 (HSP60/HSP10): 13 µM
IC50 (E. coli GroEL/ES [3]): 6.8 µM

CC1=C(/C=C/C(C)=C/C=C/C(C)=C/C(=O)O)C(C)(C)CCC1 [TRETINOIN]
IC50 (Chaperonin GroEL): > 250 µM
IC50 (HSP60/HSP10): 5.3 µM
IC50 (E. coli GroEL/ES [2]): 21 µM
IC50 (E. coli GroEL/ES [3]): 6.7 µM

IVERMECTIN
IC50 [1]: > 100 µM
IC50 (Chaperonin GroEL): > 250 µM
